In US12077503B2, “Substituted cyclic amides and their use as herbicides” (FMC CORPORATION, priority 2015, dated 2024):

Columns and labels:
Format in all cases: in vivo
[1] = tested on: barnyardgrass (Echinochloa crus-galli); test: Test G Post-Emergence Protocol; conditions: Echinochloa crus-galli, post-emergence, 312 h; for pest or weed control at 15.625 g/ha: 15.625 g ai/ha, evaluated after 13 days (100=total damage to plant; 0=no damage to plant), read-out: Barnyardgrass damage rating; for pest or weed control at 62.5 g/ha: 62.5 g ai/ha, read-out: Barnyardgrass damage rating (100=total damage to plant; 0=no damage to plant); for pest or weed control at 62.5 g/ha / pest or weed control at 250 g/ha: evaluated after 13 days; for pest or weed control at 250 g/ha: 250 g ai/ha, read-out: damage to plant, Barnyardgrass (100=total damage to plant; 0=no damage to plant)
How it was run: (§1)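 Foliar application was made 8 days after sowing, using an aqueous spray of the active in acetone/water (50:50) with 0.5% Tween 20, at doses of 15.625, 62.5 or 250 g/ha. Injury was assessed 13 days later, where 100 meant the plant was fully damaged.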

[2] = tested on: ivy-leaved morning glory (Ipomoea hederacea); test: Test G Post-Emergence Protocol; conditions: Ipomoea, post-emergence, 312 h; for pest or weed control at 15.625 g/ha: 15.625 g ai/ha, evaluated after 13 days (100=total damage to plant; 0=no damage to plant), read-out: Morningglory, Ivy-leaved damage rating; for pest or weed control at 62.5 g/ha: 62.5 g ai/ha, read-out: Morningglory, Ivy-leaved damage rating (100=total damage to plant; 0=no damage to plant); for pest or weed control at 62.5 g/ha / pest or weed control at 250 g/ha: evaluated after 13 days; for pest or weed control at 250 g/ha: 250 g ai/ha, read-out: damage to plant, Morningglory, Ivy-leaved (100=total damage to plant; 0=no damage to plant)
How it was run: as §1

[3] = tested on: velvetleaf (Abutilon theophrasti); test: Test G Post-Emergence Protocol; conditions: Abutilon theophrasti, post-emergence, 312 h; for pest or weed control at 15.625 g/ha: 15.625 g ai/ha, evaluated after 13 days (100=total damage to plant; 0=no damage to plant), read-out: Velvetleaf damage rating; for pest or weed control at 62.5 g/ha: 62.5 g ai/ha, read-out: Velvetleaf damage rating (100=total damage to plant; 0=no damage to plant); for pest or weed control at 62.5 g/ha / pest or weed control at 250 g/ha: evaluated after 13 days; for pest or weed control at 250 g/ha: 250 g ai/ha, read-out: damage to plant, Velvetleaf (100=total damage to plant; 0=no damage to plant)
How it was run: as §1

[4] = tested on: giant foxtail (Setaria faberi); test: Test G Post-Emergence Protocol; conditions: Setaria faberi, post-emergence, 312 h; for pest or weed control at 15.625 g/ha: 15.625 g ai/ha, evaluated after 13 days (100=total damage to plant; 0=no damage to plant), read-out: Foxtail, Giant damage rating; for pest or weed control at 62.5 g/ha: 62.5 g ai/ha, read-out: Foxtail, Giant damage rating (100=total damage to plant; 0=no damage to plant); for pest or weed control at 62.5 g/ha / pest or weed control at 250 g/ha: evaluated after 13 days; for pest or weed control at 250 g/ha: 250 g ai/ha, read-out: damage to plant, Foxtail, Giant (100=total damage to plant; 0=no damage to plant)
How it was run: as §1

[5] = tested on: redroot pigweed (Amaranthus retroflexus); test: Test G Post-Emergence Protocol; conditions: Amaranthus retroflexus, post-emergence, 312 h; for pest or weed control at 15.625 g/ha: 15.625 g ai/ha, evaluated after 13 days (100=total damage to plant; 0=no damage to plant), read-out: Pigweed, Redroot damage rating; for pest or weed control at 62.5 g/ha: 62.5 g ai/ha, read-out: Pigweed, Redroot damage rating (100=total damage to plant; 0=no damage to plant); for pest or weed control at 62.5 g/ha / pest or weed control at 250 g/ha: evaluated after 13 days; for pest or weed control at 250 g/ha: 250 g ai/ha, read-out: damage to plant, Pigweed, Redroot (100=total damage to plant; 0=no damage to plant)
How it was run: as §1

corn (Zea mays) [6] = test: Test G Post-Emergence Protocol; conditions: Zea mays, post-emergence, 312 h; for plant injury at 15.625 g/ha: 15.625 g ai/ha, evaluated after 13 days (100=total damage to plant; 0=no damage to plant), read-out: Corn damage rating; for plant injury at 62.5 g/ha: 62.5 g ai/ha, read-out: Corn damage rating (100=total damage to plant; 0=no damage to plant); for plant injury at 62.5 g/ha / plant injury at 250 g/ha: evaluated after 13 days; for plant injury at 250 g/ha: 250 g ai/ha, read-out: damage to plant, Corn (100=total damage to plant; 0=no damage to plant)
How it was run: as §1

[7] = tested on: barnyardgrass (Echinochloa crus-galli); test: Test G Pre-Emergence Protocol; conditions: Echinochloa crus-galli, pre-emergence, 312 h, evaluated after 13 days; for pest or weed control at 15.625 g/ha: 15.625 g ai/ha, read-out: Barnyard grass damage rating (100=total damage to plant; 0=no damage to plant); for pest or weed control at 62.5 g/ha: 62.5 g ai/ha, 100=total damage to plant, 0=no damage to plant, read-out: plant damage rating, Barnyardgrass; for pest or weed control at 250 g/ha: 250 g ai/ha, read-out: Barnyardgrass damage rating (100=total damage to plant; 0=no damage to plant)
How it was run: (§2)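 Scores are visual damage ratings from 0 (no damage) to 100 (total plant kill), taken 13 days after treatment. Compound was sprayed one day post-sowing at 15.625, 62.5 or 250 g/ha in 50:50 acetone/water with 0.5% Tween 20.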

[8] = tested on: ivy-leaved morning glory (Ipomoea hederacea); test: Test G Pre-Emergence Protocol; conditions: Ipomoea, pre-emergence, 312 h, evaluated after 13 days; for pest or weed control at 15.625 g/ha: 15.625 g ai/ha, read-out: Morning-glory, Ivy-leaved damage rating (100=total damage to plant; 0=no damage to plant); for pest or weed control at 62.5 g/ha: 62.5 g ai/ha, 100=total damage to plant, 0=no damage to plant, read-out: plant damage rating, Morningglory, Ivy-leaved; for pest or weed control at 250 g/ha: 250 g ai/ha, read-out: Morningglory, Ivy-leaved damage rating (100=total damage to plant; 0=no damage to plant)
How it was run: as §2

[9] = tested on: velvetleaf (Abutilon theophrasti); test: Test G Pre-Emergence Protocol; conditions: Abutilon theophrasti, pre-emergence, 312 h, evaluated after 13 days; for pest or weed control at 15.625 g/ha: 15.625 g ai/ha; for pest or weed control at 15.625 g/ha / pest or weed control at 250 g/ha: read-out: Velvetleaf damage rating (100=total damage to plant; 0=no damage to plant); for pest or weed control at 62.5 g/ha: 62.5 g ai/ha, 100=total damage to plant, 0=no damage to plant, read-out: plant damage rating, Velvetleaf; for pest or weed control at 250 g/ha: 250 g ai/ha
How it was run: as §2

[10] = tested on: giant foxtail (Setaria faberi); test: Test G Pre-Emergence Protocol; conditions: Setaria faberi, pre-emergence, 312 h, evaluated after 13 days; for pest or weed control at 15.625 g/ha: 15.625 g ai/ha; for pest or weed control at 15.625 g/ha / pest or weed control at 250 g/ha: read-out: Foxtail, Giant damage rating (100=total damage to plant; 0=no damage to plant); for pest or weed control at 62.5 g/ha: 62.5 g ai/ha, 100=total damage to plant, 0=no damage to plant, read-out: plant damage rating, Foxtail, Giant; for pest or weed control at 250 g/ha: 250 g ai/ha
How it was run: as §2

[11] = tested on: redroot pigweed (Amaranthus retroflexus); test: Test G Pre-Emergence Protocol; conditions: Amaranthus retroflexus, pre-emergence, 312 h, evaluated after 13 days; for pest or weed control at 15.625 g/ha: 15.625 g ai/ha; for pest or weed control at 15.625 g/ha / pest or weed control at 250 g/ha: read-out: Pigweed, Redroot damage rating (100=total damage to plant; 0=no damage to plant); for pest or weed control at 62.5 g/ha: 62.5 g ai/ha, 100=total damage to plant, 0=no damage to plant, read-out: plant damage rating, Pigweed, Redroot; for pest or weed control at 250 g/ha: 250 g ai/ha
How it was run: as §2

corn (Zea mays) [12] = test: Test G Pre-Emergence Protocol; conditions: Zea mays, pre-emergence, 312 h, evaluated after 13 days; for plant injury at 15.625 g/ha: 15.625 g ai/ha; for plant injury at 15.625 g/ha / plant injury at 250 g/ha: read-out: Corn damage rating (100=total damage to plant; 0=no damage to plant); for plant injury at 62.5 g/ha: 62.5 g ai/ha, 100=total damage to plant, 0=no damage to plant, read-out: plant damage rating, Corn; for plant injury at 250 g/ha: 250 g ai/ha
How it was run: as §2

Cc1cnc(NC(=O)[C@@H]2C(=O)N(C)C[C@H]2c2ccc(C(F)(F)F)cc2)nn1 (racemic) [Compound 1508]
0%: pest or weed control at 15.625 g/ha [1] | pest or weed control at 62.5 g/ha [1] | pest or weed control at 250 g/ha [1] | pest or weed control at 15.625 g/ha [2] | pest or weed control at 62.5 g/ha [2] | pest or weed control at 250 g/ha [2] | pest or weed control at 15.625 g/ha [3] | pest or weed control at 62.5 g/ha [3] | pest or weed control at 250 g/ha [3] | pest or weed control at 15.625 g/ha [4] | pest or weed control at 62.5 g/ha [4] | pest or weed control at 250 g/ha [4] | pest or weed control at 15.625 g/ha [5] | pest or weed control at 62.5 g/ha [5] | pest or weed control at 250 g/ha [5] | plant injury at 15.625 g/ha (corn (Zea mays) [6]) | plant injury at 62.5 g/ha (corn (Zea mays) [6]) | plant injury at 250 g/ha (corn (Zea mays) [6]) | pest or weed control at 15.625 g/ha [7] | pest or weed control at 62.5 g/ha [7] | pest or weed control at 250 g/ha [7] | pest or weed control at 15.625 g/ha [8] | pest or weed control at 62.5 g/ha [8] | pest or weed control at 250 g/ha [8] | pest or weed control at 15.625 g/ha [9] | pest or weed control at 62.5 g/ha [9] | pest or weed control at 250 g/ha [9] | pest or weed control at 15.625 g/ha [10] | pest or weed control at 62.5 g/ha [10] | pest or weed control at 250 g/ha [10] | pest or weed control at 15.625 g/ha [11] | pest or weed control at 62.5 g/ha [11] | pest or weed control at 250 g/ha [11] | plant injury at 15.625 g/ha (corn (Zea mays) [12]) | plant injury at 62.5 g/ha (corn (Zea mays) [12]) | plant injury at 250 g/ha (corn (Zea mays) [12])

Cc1onc(NC(=O)[C@@H]2C(=O)N(C)C[C@H]2c2ccc(C(F)(F)F)cc2)c1Cl (racemic) [Compound 1580]
0%: pest or weed control at 15.625 g/ha [1] | pest or weed control at 62.5 g/ha [1] | pest or weed control at 250 g/ha [1] | pest or weed control at 15.625 g/ha [2] | pest or weed control at 62.5 g/ha [2] | pest or weed control at 250 g/ha [2] | pest or weed control at 15.625 g/ha [3] | pest or weed control at 62.5 g/ha [3] | pest or weed control at 250 g/ha [3] | pest or weed control at 15.625 g/ha [4] | pest or weed control at 62.5 g/ha [4] | pest or weed control at 250 g/ha [4] | pest or weed control at 15.625 g/ha [5] | pest or weed control at 62.5 g/ha [5] | pest or weed control at 250 g/ha [5] | plant injury at 15.625 g/ha (corn (Zea mays) [6]) | plant injury at 62.5 g/ha (corn (Zea mays) [6]) | plant injury at 250 g/ha (corn (Zea mays) [6]) | pest or weed control at 15.625 g/ha [7] | pest or weed control at 62.5 g/ha [7] | pest or weed control at 250 g/ha [7] | pest or weed control at 15.625 g/ha [8] | pest or weed control at 62.5 g/ha [8] | pest or weed control at 250 g/ha [8] | pest or weed control at 15.625 g/ha [9] | pest or weed control at 62.5 g/ha [9] | pest or weed control at 250 g/ha [9] | pest or weed control at 15.625 g/ha [10] | pest or weed control at 62.5 g/ha [10] | pest or weed control at 250 g/ha [10] | pest or weed control at 15.625 g/ha [11] | pest or weed control at 62.5 g/ha [11] | pest or weed control at 250 g/ha [11] | plant injury at 15.625 g/ha (corn (Zea mays) [12]) | plant injury at 62.5 g/ha (corn (Zea mays) [12]) | plant injury at 250 g/ha (corn (Zea mays) [12])
